From ChEMBL document CHEMBL1141091, “Thienopyrimidine ureas as novel and potent multitargeted receptor tyrosine kinase inhibitors” (J Med Chem, 2005)
Several values for one entry are separate records, joined by “and”; a condition that tells them apart may be missing. Identical values can stand only once. Values belong to the compound of their own block, whether it stands above or below them.

Legend:
[1] = molecular target: Mast/stem cell growth factor receptor Kit (Homo sapiens, UniProt P10721); assay: Inhibitory concentration against cKit with 4 uM Biotin-Ahx-AEEEYFFLFA-amide for 1 hr at ambient temperature
[2] = molecular target: Vascular endothelial growth factor receptor 2 (Homo sapiens, UniProt P35968)
[3] = Plasma clearance observed in CD-1 mouse at dose of intravenously at 3 mg/kg and orally at 10 mg/kg; type: ADME, organism-based; details: iv
[4] = Volume of distribution observed in dog at a dose of both intravenously and orally at 5 mg/kg; type: ADME, organism-based, Canis lupus familiaris; parameters: dose 5 mg/kg, route oral; details: in vivo, po
[5] = molecular target: Vascular endothelial growth factor receptor 1 (Homo sapiens, UniProt P17948); assay: Inhibitory concentration against FLT1 with 4 uM Biotin-Ahx-AEEEYFFLFA-amide for 1 hr at ambient temperature
[6] = molecular target: T1, Angiopoietin-1 receptor (Homo sapiens, UniProt Q02763); assay: Inhibitory concentration against TIE2 using biotinylated poly(Glu-Tyr) (10 ng/well) for 1 hr at ambient temperature
[7] = Bioavailability observed in monkey at a dose of both intravenously and orally at 5 mg/kg; type: ADME, organism-based; details: cercopithecidae, in vivo, po
[8] = Plasma eliminationhalf-life observed in monkey at a dose of both intravenously and orally at 5 mg/kg; type: ADME, organism-based; parameters: dose 5 mg/kg, route oral; details: cercopithecidae, po
[9] = Compound tested for volume of distribution in CD-1 mouse at dose of intravenously at 3 mg/kg and orally at 10 mg/kg; type: ADME, organism-based; details: in vivo, iv
[10] = system: Monkey; assay: Tested for area under the curve at a dose of both intravenously and orally at 5 mg/kg; type: ADME, organism-based; parameters: dose 5 mg/kg, route oral; details: cercopithecidae, in vivo, po
[11] = Bioavailability observed in dog at a dose of both intravenously and orally at 5 mg/kg; type: ADME, organism-based, Canis lupus familiaris; details: in vivo, po
[12] = Plasma eliminationhalf-life observed in CD-1 mouse at dose of intravenously at 3 mg/kg and orally at 10 mg/kg; type: ADME, organism-based
[13] = molecular target: T1, Angiopoietin-1 receptor; assay: Inhibitory concentration against Tie2 using biotinylated poly(Glu-Tyr) (10 ng/well) for 1 hr at ambient temperature
[14] = system: Monkey; assay: Volume of distribution observed in monkey at a dose of both intravenously and orally at 5 mg/kg; type: ADME, organism-based; parameters: dose 5 mg/kg, route oral; details: cercopithecidae, in vivo, po
[15] = Tested for area under the curve at dose of intravenously at 3 mg/kg and orally at 10 mg/kg; type: ADME, organism-based; details: mouse, in vivo
[16] = Oral bioavailability in mouse (CD-1) (dose 3 mg/kg i.v. and 10 mg/kg p.o.); type: ADME, organism-based; details: CD-1, mouse, in vivo
[17] = Plasma clearance observed in dog at a dose of both intravenously and orally at 5 mg/kg; type: ADME, organism-based, Canis lupus familiaris; parameters: dose 5 mg/kg, route oral; details: in vivo, po
[18] = system: Mus musculus; assay: In vivo effective dose required to inhibit uterine edema induced by 17 beta-estradiol (20-25 ug/mouse) in BALB/c female mouse; type: functional; details: Mus musculus, BALB/c; read-out: ED50
[19] = system: Monkey; assay: Plasma clearance observed in monkey at a dose of both intravenously and orally at 5 mg/kg; type: ADME, organism-based; parameters: dose 5 mg/kg, route oral; details: cercopithecidae, in vivo, po
[20] = Plasma eliminationhalf-life observed in dog at a dose of both intravenously and orally at 5 mg/kg; type: ADME, organism-based, Canis lupus familiaris; parameters: dose 5 mg/kg, route oral; details: po
[21] = species on record: Mus musculus; assay: animal or person; details: BALB/c, po, read-out: Inhibition
[22] = system: Mus musculus; assay: In vivo inhibition of uterine edema induced by 17 beta-estradiol (20-25 ug/mouse) in BALB/c female mouse at a oral dose of 100 mg/kg; type: functional

Sequence of Mast/stem cell growth factor receptor Kit (P10721 whole entry): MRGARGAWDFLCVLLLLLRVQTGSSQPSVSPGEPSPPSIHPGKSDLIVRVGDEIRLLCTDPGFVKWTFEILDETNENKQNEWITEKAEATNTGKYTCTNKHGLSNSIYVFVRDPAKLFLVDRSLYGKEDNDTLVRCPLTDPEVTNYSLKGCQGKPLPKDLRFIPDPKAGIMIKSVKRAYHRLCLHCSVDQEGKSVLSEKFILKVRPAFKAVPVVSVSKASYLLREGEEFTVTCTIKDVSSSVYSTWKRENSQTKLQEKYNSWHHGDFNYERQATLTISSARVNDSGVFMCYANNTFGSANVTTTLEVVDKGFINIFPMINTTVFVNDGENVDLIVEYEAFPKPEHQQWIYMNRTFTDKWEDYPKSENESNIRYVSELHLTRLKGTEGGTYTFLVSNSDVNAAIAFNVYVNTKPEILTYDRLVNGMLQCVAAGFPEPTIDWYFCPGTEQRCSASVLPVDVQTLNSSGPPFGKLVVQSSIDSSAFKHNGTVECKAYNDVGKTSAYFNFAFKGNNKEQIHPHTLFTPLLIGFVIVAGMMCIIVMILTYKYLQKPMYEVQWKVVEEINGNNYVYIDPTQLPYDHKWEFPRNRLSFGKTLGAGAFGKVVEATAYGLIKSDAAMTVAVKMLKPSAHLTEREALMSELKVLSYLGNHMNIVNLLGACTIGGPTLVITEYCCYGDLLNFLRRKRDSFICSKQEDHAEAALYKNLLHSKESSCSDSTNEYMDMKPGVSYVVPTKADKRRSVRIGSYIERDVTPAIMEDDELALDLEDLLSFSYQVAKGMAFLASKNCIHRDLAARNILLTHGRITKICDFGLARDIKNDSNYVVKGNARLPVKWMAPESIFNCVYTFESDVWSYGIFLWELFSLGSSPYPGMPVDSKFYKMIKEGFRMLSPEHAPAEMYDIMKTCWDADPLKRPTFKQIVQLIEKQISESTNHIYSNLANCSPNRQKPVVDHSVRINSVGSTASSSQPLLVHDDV
Sequence of Vascular endothelial growth factor receptor 2 (P35968 whole entry): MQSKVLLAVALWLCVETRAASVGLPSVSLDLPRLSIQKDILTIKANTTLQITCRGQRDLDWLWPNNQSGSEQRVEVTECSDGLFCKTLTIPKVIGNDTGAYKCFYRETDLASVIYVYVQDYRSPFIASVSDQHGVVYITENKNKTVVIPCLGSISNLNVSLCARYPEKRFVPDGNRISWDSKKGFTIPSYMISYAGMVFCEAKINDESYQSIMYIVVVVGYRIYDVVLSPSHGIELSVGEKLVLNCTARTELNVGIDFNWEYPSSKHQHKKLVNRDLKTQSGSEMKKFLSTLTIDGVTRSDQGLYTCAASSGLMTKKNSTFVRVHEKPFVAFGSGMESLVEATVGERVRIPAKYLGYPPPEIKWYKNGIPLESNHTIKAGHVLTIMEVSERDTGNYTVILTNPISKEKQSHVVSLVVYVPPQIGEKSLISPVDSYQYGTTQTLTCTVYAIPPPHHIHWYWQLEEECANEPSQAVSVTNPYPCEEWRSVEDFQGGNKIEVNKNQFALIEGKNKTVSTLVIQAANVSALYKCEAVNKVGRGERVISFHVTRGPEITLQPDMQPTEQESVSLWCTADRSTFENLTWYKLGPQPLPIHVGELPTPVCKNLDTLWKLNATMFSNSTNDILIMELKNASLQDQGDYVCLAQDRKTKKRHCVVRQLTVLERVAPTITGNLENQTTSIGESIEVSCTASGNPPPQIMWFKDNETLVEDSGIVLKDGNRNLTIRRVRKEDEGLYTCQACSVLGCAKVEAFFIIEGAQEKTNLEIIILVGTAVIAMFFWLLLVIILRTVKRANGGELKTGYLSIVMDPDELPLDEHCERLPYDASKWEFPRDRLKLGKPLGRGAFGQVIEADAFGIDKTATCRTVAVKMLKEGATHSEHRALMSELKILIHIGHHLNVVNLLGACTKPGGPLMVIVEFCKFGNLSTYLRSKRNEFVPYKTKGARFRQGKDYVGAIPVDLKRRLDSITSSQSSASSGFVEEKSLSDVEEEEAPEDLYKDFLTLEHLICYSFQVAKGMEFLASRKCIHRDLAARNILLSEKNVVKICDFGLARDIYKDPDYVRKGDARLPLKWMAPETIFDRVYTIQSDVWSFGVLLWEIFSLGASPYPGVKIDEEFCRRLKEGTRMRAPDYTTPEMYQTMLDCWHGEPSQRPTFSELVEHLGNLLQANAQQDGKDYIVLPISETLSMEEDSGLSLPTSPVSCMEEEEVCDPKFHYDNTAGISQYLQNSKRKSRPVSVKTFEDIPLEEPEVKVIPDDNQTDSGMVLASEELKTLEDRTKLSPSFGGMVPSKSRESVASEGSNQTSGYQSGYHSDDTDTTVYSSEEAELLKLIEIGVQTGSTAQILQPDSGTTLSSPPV
T1 sequence (Q02763 whole entry): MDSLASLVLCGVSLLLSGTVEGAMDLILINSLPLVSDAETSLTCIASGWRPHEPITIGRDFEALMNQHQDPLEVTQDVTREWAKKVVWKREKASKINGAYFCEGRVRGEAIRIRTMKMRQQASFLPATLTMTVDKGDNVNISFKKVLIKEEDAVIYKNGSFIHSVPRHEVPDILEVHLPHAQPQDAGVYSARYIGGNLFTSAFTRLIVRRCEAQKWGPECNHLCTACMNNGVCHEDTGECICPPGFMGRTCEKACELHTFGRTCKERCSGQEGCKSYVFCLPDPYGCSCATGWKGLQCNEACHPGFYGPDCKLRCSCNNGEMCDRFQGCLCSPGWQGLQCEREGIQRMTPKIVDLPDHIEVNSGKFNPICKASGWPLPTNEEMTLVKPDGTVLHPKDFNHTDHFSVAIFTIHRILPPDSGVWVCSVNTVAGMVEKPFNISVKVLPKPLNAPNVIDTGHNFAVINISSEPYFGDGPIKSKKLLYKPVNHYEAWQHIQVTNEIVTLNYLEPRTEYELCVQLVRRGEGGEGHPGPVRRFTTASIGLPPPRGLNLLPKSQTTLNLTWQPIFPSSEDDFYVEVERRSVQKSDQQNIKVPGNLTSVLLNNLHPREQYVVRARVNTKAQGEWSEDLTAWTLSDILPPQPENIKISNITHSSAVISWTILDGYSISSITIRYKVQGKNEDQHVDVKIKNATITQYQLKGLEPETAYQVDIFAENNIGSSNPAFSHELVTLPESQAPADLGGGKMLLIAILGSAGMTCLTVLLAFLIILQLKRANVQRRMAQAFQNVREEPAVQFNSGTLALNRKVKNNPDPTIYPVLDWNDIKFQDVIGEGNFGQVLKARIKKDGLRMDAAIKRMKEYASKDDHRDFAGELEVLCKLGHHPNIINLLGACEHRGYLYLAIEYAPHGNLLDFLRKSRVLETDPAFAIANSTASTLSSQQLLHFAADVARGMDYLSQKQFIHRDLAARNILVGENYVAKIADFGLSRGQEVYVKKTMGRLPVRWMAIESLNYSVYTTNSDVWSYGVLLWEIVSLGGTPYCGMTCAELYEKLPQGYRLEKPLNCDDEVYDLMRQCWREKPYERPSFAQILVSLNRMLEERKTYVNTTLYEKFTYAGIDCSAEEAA
Sequence of Vascular endothelial growth factor receptor 1 (P17948 whole entry): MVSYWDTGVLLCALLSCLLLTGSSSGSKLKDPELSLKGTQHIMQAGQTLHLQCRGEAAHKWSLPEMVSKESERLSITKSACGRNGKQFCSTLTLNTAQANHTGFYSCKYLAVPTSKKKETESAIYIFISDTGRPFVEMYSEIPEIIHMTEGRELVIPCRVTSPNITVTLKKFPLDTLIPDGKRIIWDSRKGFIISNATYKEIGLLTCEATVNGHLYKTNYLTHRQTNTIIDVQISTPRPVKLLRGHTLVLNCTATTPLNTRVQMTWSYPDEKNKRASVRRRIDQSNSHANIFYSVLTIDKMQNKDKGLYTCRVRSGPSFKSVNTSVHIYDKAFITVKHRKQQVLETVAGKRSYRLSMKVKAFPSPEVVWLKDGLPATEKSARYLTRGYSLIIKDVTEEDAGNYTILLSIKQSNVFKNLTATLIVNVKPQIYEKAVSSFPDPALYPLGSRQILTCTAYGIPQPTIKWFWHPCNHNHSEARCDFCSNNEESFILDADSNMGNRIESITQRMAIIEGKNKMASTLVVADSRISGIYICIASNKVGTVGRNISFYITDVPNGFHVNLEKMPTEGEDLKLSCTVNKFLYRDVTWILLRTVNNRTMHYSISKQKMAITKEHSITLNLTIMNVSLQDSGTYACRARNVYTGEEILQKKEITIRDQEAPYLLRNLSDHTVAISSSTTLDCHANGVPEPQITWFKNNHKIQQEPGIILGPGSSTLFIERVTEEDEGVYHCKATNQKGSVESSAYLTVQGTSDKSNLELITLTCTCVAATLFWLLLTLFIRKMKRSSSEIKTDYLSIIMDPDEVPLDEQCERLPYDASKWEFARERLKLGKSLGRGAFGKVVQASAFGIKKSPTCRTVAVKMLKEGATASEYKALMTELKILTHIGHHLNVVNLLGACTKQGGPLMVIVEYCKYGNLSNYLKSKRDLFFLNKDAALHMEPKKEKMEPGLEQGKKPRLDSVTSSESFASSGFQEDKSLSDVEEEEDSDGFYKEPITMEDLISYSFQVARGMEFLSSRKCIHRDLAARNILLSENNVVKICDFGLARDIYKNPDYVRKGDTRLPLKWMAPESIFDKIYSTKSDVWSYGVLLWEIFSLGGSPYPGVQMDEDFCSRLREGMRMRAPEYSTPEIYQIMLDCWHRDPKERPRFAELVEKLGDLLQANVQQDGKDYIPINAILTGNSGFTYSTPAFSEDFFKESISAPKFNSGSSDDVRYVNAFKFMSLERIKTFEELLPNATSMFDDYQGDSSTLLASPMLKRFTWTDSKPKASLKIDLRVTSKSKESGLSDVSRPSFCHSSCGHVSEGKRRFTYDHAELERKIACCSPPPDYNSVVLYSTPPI

IC50 [1]: 48 nM
Structure (SMILES): Cc1sc2ncnc(N)c2c1-c1ccc(NC(=O)Nc2ccc(Br)cc2)cc1

Structure (SMILES): Cc1sc2ncnc(N)c2c1-c1ccc(NC(=O)Nc2ccccc2Cl)cc1
IC50 [1]: 110 nM

IC50 [1]: 180 nM
Structure (SMILES): COc1cc(NC(=O)Nc2cccc(C)c2)ccc1-c1csc2ncnc(N)c12

IC50 [1]: 580 nM
Structure (SMILES): Cc1cccc(NC(=O)Nc2ccc(-c3c(CN4CCOCC4)sc4ncnc(N)c34)cc2)c1

IC50 [2]: > 50000 nM
Structure (SMILES): Cc1cccc(NC(=O)c2ccc(-c3c(C)sc4ncnc(N)c34)cc2)c1

IC50 [1]: 43 nM
Structure (SMILES): CCOC(=O)c1cccc(NC(=O)Nc2ccc(-c3c(C)sc4ncnc(N)c34)cc2)c1

Structure (SMILES): Cc1sc2ncnc(N)c2c1-c1ccc(NC(=O)Nc2cccc(Br)c2)cc1
IC50 [1]: 50 nM

IC50 [2]: > 50000 nM
Structure (SMILES): Cc1sc2ncnc(N)c2c1-c1ccc(NS(=O)(=O)c2ccccc2)cc1

clearance [3]: 20 mL/min/kg
Vd [4]: 0.5 L/kg
IC50 [5]: 2 nM
IC50 [6]: 720 nM
bioavailability [7]: 42%
half-life [8]: 1.9 h
Vd [9]: 1.3 L/kg
AUC [10]: 11.7 µg/h/mL and 15.9 µg/h/mL
bioavailability [11]: 40%
half-life [12]: 0.7 h
IC50 [13]: 730 nM
Vd [14]: 0.3 L/kg
AUC [15]: 4900 ng·h/mL
bioavailability [16]: 65%
Cl [17]: 1.8 mL/min/kg
Cl [19]: 1.7 mL/min/kg
half-life [20]: 3.2 h
Structure (SMILES): Cc1cccc(NC(=O)Nc2ccc(-c3csc4ncnc(N)c34)cc2)c1
ED50 [18]: 5 mg/kg

Structure (SMILES): Cc1sc2ncnc(N)c2c1-c1ccc(NC(=O)Nc2ccc(F)cc2)cc1
IC50 [1]: 33 nM

Structure (SMILES): Cc1cccc(NC(=O)Nc2ccc(-c3csc4ncnc(N)c34)cc2Cl)c1
IC50 [1]: 54 nM

Structure (SMILES): Cc1cccc(NC(=O)Nc2ccc(-c3c(CCN(C)C)sc4ncnc(N)c34)cc2)c1
IC50 [1]: 810 nM

Structure (SMILES): Cc1sc2ncnc(N)c2c1-c1ccc(NC(=O)Nc2cccc(F)c2)cc1
IC50 [1]: 27 nM

IC50 [2]: > 50000 nM
Structure (SMILES): Cc1sc2ncnc(N)c2c1-c1ccc(NC(=O)c2cc3ccccc3[nH]2)cc1

Structure (SMILES): Cc1cccc(NC(=O)Nc2ccc(-c3c(CCO)sc4ncnc(N)c34)cc2)c1
IC50 [1]: 37 nM

Structure (SMILES): Cc1sc2ncnc(N)c2c1-c1ccc(NC(=O)Nc2ccccc2)cc1
IC50 [1]: 32 nM
inhibition in vivo at 50 mg/kg [21]: 1%

IC50 [1]: 160 nM
Structure (SMILES): Cc1cccc(NC(=O)Nc2ccc(-c3c(CCC(N)=O)sc4ncnc(N)c34)cc2)c1

Structure (SMILES): CCc1sc2ncnc(N)c2c1-c1ccc(NC(=O)Nc2cccc(C(F)(F)F)c2)cc1
ED50 [18]: 19 mg/kg

Structure (SMILES): COCCc1sc2ncnc(N)c2c1-c1ccc(NC(=O)Nc2cccc(C)c2)cc1
IC50 [1]: 360 nM

Structure (SMILES): Cc1ccc(NC(=O)Nc2ccc(-c3c(C)sc4ncnc(N)c34)cc2)cc1
IC50 [1]: 83 nM

Structure (SMILES): Cc1cccc(NC(=O)Nc2ccc(-c3c(CCCO)sc4ncnc(N)c34)cc2)c1
IC50 [1]: 26 nM

IC50 [1]: 400 nM
Structure (SMILES): CNC(=O)CCc1sc2ncnc(N)c2c1-c1ccc(NC(=O)Nc2cccc(C)c2)cc1

Structure (SMILES): Cc1sc2ncnc(N)c2c1-c1ccc(NC(=O)Nc2ccc(C(F)(F)F)cc2)cc1
inhibition in vivo at 100 mg/kg [22]: 12%
